How the values were obtained:
CX3CR1 [1] = target: T1, CX3CR1 (Homo sapiens (Human), UniProt P49238); assay: hCX3CR1 [3H]-AZD8797 competitive binding assay (filter); conditions: CHO-hCX3CR1 membranes, 2 nM [3H]-AZD8797
Summary of the method: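 CHO-hCX3CR1 membranes (9 μg/well) were incubated 2 h at room temperature with 2 nM [3H]-AZD8797 and varying competitor concentrations. Buffer: 25 mM HEPES pH 7.4, 10 mM MgCl2, 1 mM CaCl2, 0.5% BSA, 1% DMSO. Bound ligand was collected by vacuum filtration, washed in ice-cold buffer with 500 mM NaCl, and counted by scintillation.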

CX3CR1 [2] = target: T1, CX3CR1; assay: hCX3CR1 [125I]-CX3CL1 displacement binding (SPA); conditions: CHO-hCX3CR1 membranes, [125I]-CX3CL1, SPA beads
Summary of the method: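 SPA competition binding on CHO membranes expressing human CX3CR1, with […] [125I]-CX3CL1 and varying competitor concentrations, WGA PVT beads, 50 mM HEPES pH 7.4, 10 mM MgCl2, 1 mM EDTA, 0.1% gelatin, 1% DMSO. Incubated 20 h at room temperature; bound radioactivity counted.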

CX3CR1 [3] = target: T1, CX3CR1; assay: CX3CR1-dependent cell adhesion to recombinant CX3CL1 in human whole blood under flow; type: cell-based; conditions: recombinant full-length CX3CL1
Protocol: (§1) Adhesion of cells to recombinant full-length human CX3CL1 was monitored under physiological flow using a Cellix VenaFlux microfluidics platform with connected fluorescent microscope and camera, and using Vena8 Fluoro+ Biochips (Cellix) pre-coated with anti-His monoclonal antibody (25 μg/mL; R&D Systems) and His-tagged full-length CX3CL1 (15 μg/mL; R&D Systems).
CX3CR1-Dependent Cell Adhesion to Recombinant CX3CL1 in Human Whole Blood Under Flow
Human whole blood from healthy volunteers was collected using heparin as anti-coagulant. […] Compound stocks or DMSO vehicle were added to 0.5 or 1.0 ml aliquots of blood such that the final concentration of DMSO was 0.1%, corresponding to a 1000-fold dilution of compound stock. Blood was pre-incubated with compound at room temperature for 60 minutes with gentle shaking. DiOC6 (Invitrogen, 5 μM) or Hoechst 33342 (Invitrogen, 300 μM) dye was subsequently added to fluorescently label cells and enable their detection during the flow adhesion assay. To monitor adhesion, blood was allowed to flow through the channels of a Vena8 Fluoro+ biochip at 2.25 dynes per cm^2 for 3-6 minutes prior to capturing images for quantification. Fluorescent cells adhering to the channels were counted and the mean and/or total count across five to six images in each channel were used for calculating concentration-response curves.

CX3CR1 [4] = target: T1, CX3CR1; assay: Flow adhesion for human B-lymphocyte cell line RPMI-8226; type: cell-based; conditions: RPMI-8226 cells under flow, recombinant full-length CX3CL1
Protocol: as §1
Flow Adhesion for Human B-Lymphocyte Cell Line RPMI-8226
Cells were cultured in RPMI 1640 medium with GlutaMAX and 20% FBS (HyClone, Perbio). Before each experiment, cells were centrifuged at 320 g and resuspended to 5×10^6 cells per ml in RPMI 1640 with 1% FBS. Cells were pre-incubated for 15 minutes at room temperature with CX3CR1 antagonist in an 8-step 3-fold dilution series starting at 3.3 μM. DMSO concentration was kept constant for all antagonist concentrations at 0.1%. Cells were pumped through the channels of the Vena8 Fluoro+ biochip at 0.5 dynes per cm2 for 3 m prior to capturing microscope images for quantification. Cells adhering to channels were counted and the mean values across five images in each channel were used for calculating the concentration-response curves.

CX3CR1 [5] = target: T1, CX3CR1; assay: PathHunter β-arrestin recruitment assay; type: cell-based; conditions: CHO-K1 CX3CR1 β-Arrestin cells, with CX3CL1
Protocol: PathHunter β-Arrestin Recruitment Assay
β-Arrestin recruitment was measured using the PathHunter® eXpress enzyme fragment complementation assay (DiscoverX #93-0956E2). 3500 CHO-K1 CX3CR1 β-Arrestin cells/well in Opti-MEM were incubated together with different concentrations of CX3CL1 and antagonistic compound in a Greiner tissue culture treated flat-bottom 384-well plate. After 90 min of incubation at 37° C., the detection reagent supplied in the kit was added and incubation continued for 1 h at room temperature, before reading the luminescence with a Victor2 luminescence plate reader (PerkinElmer). The final DMSO concentration was held constant at 1%.

T1 sequence (P49238 whole entry): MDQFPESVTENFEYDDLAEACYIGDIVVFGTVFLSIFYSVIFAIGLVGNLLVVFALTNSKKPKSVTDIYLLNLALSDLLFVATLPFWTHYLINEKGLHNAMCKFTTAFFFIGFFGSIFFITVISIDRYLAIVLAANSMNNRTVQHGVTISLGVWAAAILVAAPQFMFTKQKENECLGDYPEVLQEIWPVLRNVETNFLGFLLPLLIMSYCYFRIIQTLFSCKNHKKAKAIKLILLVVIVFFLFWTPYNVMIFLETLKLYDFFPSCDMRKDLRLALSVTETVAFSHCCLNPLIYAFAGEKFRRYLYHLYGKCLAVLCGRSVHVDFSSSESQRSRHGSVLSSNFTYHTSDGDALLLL

Row | SMILES | IC50 (CX3CR1 [1]) [nM] | IC50 (CX3CR1 [2]) [nM] | IC50 (CX3CR1 [3]) [nM] | IC50 (CX3CR1 [4]) [nM] | EC50 (CX3CR1 [5]) [nM]
1 | CC(C)C[C@H](CO)Nc1nc(C[C@H](C)c2ccccc2F)nc(NS(C)(=O)=O)n1 (single isomer, unassigned) [Example 145, N-(4-((S*)-2-(2-Fluorophenyl)propyl)-6-(((R)-1-hydroxy-4-methylpentan-2-yl)amino)-1,3,5-triazin-2-yl)methanesulfonamide] | 129 | 637 | 543 | 28 | –
2 | CC(C)C[C@H](CO)Nc1nc(C[C@@H](C)c2cccc(F)c2F)nc(NS(C)(=O)=O)n1 (single isomer, unassigned) [Example 144, N-(4-((R*)-2-(2,3-Difluorophenyl)propyl)-6-(((R)-1-hydroxy-4-methylpentan-2-yl)amino)-1,3,5-triazin-2-yl)methanesulfonamide] | 13 | 104 | 150 | 6 | 43
3 | COc1ncc([C@H](C)Cc2nc(N[C@@H](CO)CC(C)C)nc(NS(C)(=O)=O)n2)cc1F (single isomer, unassigned) [Example 7, N-(4-((R*)-2-(5-Fluoro-6-methoxypyridin-3-yl)propyl)-6-(((R)-1-hydroxy-4-methylpentan-2-yl)amino)-1,3,5-triazin-2-yl)methanesulfonamide] | 55 | > 10000 | 2460 | 128 | 400
4 | COc1cc(F)c([C@H](C)Cc2nc(N[C@@H](CO)CC(C)C)nc(NS(C)(=O)=O)n2)cn1 (single isomer, unassigned) [Example 46, N-(4-((R*)-2-(4-Fluoro-6-methoxypyridin-3-yl)propyl)-6-(((R)-1-hydroxy-4-methylpentan-2-yl)amino)-1,3,5-triazin-2-yl)methanesulfonamide] | 52 | – | 1400 | – | 100
5 | COc1ccc([C@H](C)Cc2nc(N[C@@H](CO)CC(C)C)nc(NS(C)(=O)=O)n2)c(F)c1 (single isomer, unassigned) [Example 81, N-(4-((R*)-2-(2-Fluoro-4-methoxyphenyl)propyl)-6-(((R)-1-hydroxy-4-methylpentan-2-yl)amino)-1,3,5-triazin-2-yl)methanesulfonamide] | 49 | 470 | 3080 | 14 | –
6 | COc1ccc([C@@H](C)Cc2nc(N[C@@H](CO)CC(C)C)nc(NS(C)(=O)=O)n2)c(F)c1 (single isomer, unassigned) [Example 82, N-(4-((S*)-2-(2-Fluoro-4-methoxyphenyl)propyl)-6-(((R)-1-hydroxy-4-methylpentan-2-yl)amino)-1,3,5-triazin-2-yl)methanesulfonamide] | 128 | 566 | – | 11 | –
7 | COc1ccc([C@@H](C)Cc2nc(N[C@@H](CO)CC(C)C)nc(NS(C)(=O)=O)n2)cn1 (single isomer, unassigned) [Example 75, N-(4-(((R)-1-Hydroxy-4-methylpentan-2-yl)amino)-6-((S*)-2-(6-methoxypyridin-3-yl)propyl)-1,3,5-triazin-2-yl)methanesulfonamide] | 2700 | 5180 | – | > 3000 | –
8 | CC(C)C[C@H](CO)Nc1nc(C[C@@H](C)c2ccccc2)nc(NS(C)(=O)=O)n1 (single isomer, unassigned) [Example 148, N-(4-(((R)-1-Hydroxy-4-methylpentan-2-yl)amino)-6-((R*)-2-phenylpropyl)-1,3,5-triazin-2-yl)methanesulfonamide] | 37 | 484 | 326 | 37 | –
9 | COc1ccc([C@H](C)Cc2nc(N[C@@H](CO)CC(C)C)nc(NS(C)(=O)=O)n2)c(F)n1 (single isomer, unassigned) [Example 85, N-(4-((R*)-2-(2-Fluoro-6-methoxypyridin-3-yl)propyl)-6-(((R)-1-hydroxy-4-methylpentan-2-yl)amino)-1,3,5-triazin-2-yl)methanesulfonamide] | 18 | – | 691 | – | 50
10 | CC(C)C[C@H](CO)Nc1nc(C[C@@H](C)c2ccccc2F)nc(NS(C)(=O)=O)n1 (single isomer, unassigned) [Example 146, N-(4-((R*)-2-(2-Fluorophenyl)propyl)-6-(((R)-1-hydroxy-4-methylpentan-2-yl)amino)-1,3,5-triazin-2-yl)methanesulfonamide] | 23 | 180 | 233 | 11 | –
11 | CC(C)C[C@H](CO)Nc1nc(C[C@H](C)c2cccc(F)c2F)nc(NS(C)(=O)=O)n1 (single isomer, unassigned) [Example 143, N-(4-((S*)-2-(2,3-Difluorophenyl)propyl)-6-(((R)-1-hydroxy-4-methylpentan-2-yl)amino)-1,3,5-triazin-2-yl)methanesulfonamide] | 156 | 430 | – | 522 | –

— patent US20240199558A1, “2,4,6-TRISUBSTITUTED 1,3,5-TRIAZINES AS MODULATORS OF CX3CR1” (ASTRAZENECA AB, priority 2022, published 2024)
